Assay results: patent US6495594B2, “Biologically active analogs of discodermolide” (Harbor Branch Oceanographic Institution, Inc., priority 2000, dated 2002)
Entries after “also recorded” stand apart in the source; their conditions may differ.

What was measured:
[1] = tested on: A549 human lung cells; assay: Cell cycle progression by flow cytometry; format: cell-based
Experimental: Cell cycle studies were initiated in order to pinpoint a specific phase within the cell cycle in which discodermolide analogs were exerting their antiproliferative effect. A549 human lung cells were used as cell cycle targets to compare the effects of discodermolide and discodermolide analogs on perturbation of the cell cycle. Cell cycle analyses were performed as follows: A549 cells were incubated at 37° C. in 5% CO2 in air in the presence or absence of varying concentrations of discodermolide or discodermolide analogs for 24 hr. Cells were harvested, fixed in ethanol, washed, and stained with 0.02 mg/mL of propidium iodide (P.I.) together with 0.1 mg/mL of RNAse A. Stained preparations were analyzed on a Coulter EPICS ELITE flow cytometer with 488 nm excitation. Fluorescence measurements and resulting DNA histograms were collected from at least 10,000 P.I. stained cells at an emission wavelength of 690 nm. Raw histogram data was further analyzed using a cell cycle analysis program (Multicycle, Phoenix Flow Systems).

[2] = tested on: purified bovine brain tubulin; assay: Tubulin polymerization (optical density at 350 nm); format: biochemical; parameters: key to Purified tubulin polymerization by 10 μM / Purified tubulin polymerization at 10 μM: −: no effect; +/−: minimal or questionable effect; +: weak effect; ++: strong effect; +++: very strong effect equivalent to discodermolide; details: 10 μM compound; for Maximum polymerization relative to that induced by discodermolide / Purified tubulin polymerization at 10 μM / Purified tubulin polymerization by 10 μM: 1 mg/mL tubulin; for Purified tubulin polymerization at 10 μM / Purified tubulin polymerization by 10 μM: subjective rating; for Purified tubulin polymerization at 10 μM: Table 12; for Purified tubulin polymerization by 10 μM: Table 11
Experimental: Compounds were tested at 10 μM with 1 mg/mL tubulin. The temperature was varied during the course of the experiment as follows: the experiment was begun with an initial temperature of 4° C. and held for 1 minute; the temperature was then increased to 35° C. at a rate of 1° C./minute, held at 35° C. for 1 minute, decreased to 4° C. at a rate of 2° C/minute, and finally held at 4° C. for 14 minutes. The curves shown are for compounds: discodermolide (I); 2-desmethyldiscodermolide (II); 19-desaminocarbonyldiscodermolide (III); 2-epidiscodermolide (IV); and 3-deoxy-2A-discodermolide (VI).
Compounds were tested at 10 μM with 1 mg/mL tubulin. The temperature was varied during the course of the experiment as follows: the experiment was begun with an initial temperature of 4° C. and held for 1 minute; the temperature was then increased to 35° C. at a rate of 1° C./minute, held at 35° C. for 1 minute, decreased to 4° C. at a rate of 2° C./minute, and finally held at 4° C. for 14 minutes. The curves shown are for discodermolide (I); 8,21,23-hexahydrodiscodermolide (XII) and 7-deoxy-8,21,23-hexahydrodiscodermolide (XIII).
Polymerization of purified bovine brain tubulin (Cytoskeleton Inc., Denver, Colo.) was followed by changes in the optical density of tubulin solutions at 350 nm in a Hitachi U-3010 spectrophotometer equipped with a SPR-10 electronic thermostatted cell holder. Stock solutions of tubulin were diluted on ice in G-PEM buffer (1 mM GTP, 80 mM PIPES, 1 mM EGTA, 0.5 mM magnesium chloride; pH 6.8) to a final concentration of 1 mg/mL. The instrument was zeroed on this solution at 4° C. Discodermolide, and its analogs, were then added to the tubulin solution to a final concentration of 10 μM, quickly mixed, and the absorbance monitored over a period of 61 minutes. Within this time the temperature of the thermoelectric cell holder was held at 4° C. for 1 minute, increased to 35° C. at a rate of 1° C./minute, reduced back to 4° C. at a rate of 2° C./minute, and held at 4° C. for an additional 14 minutes.

[3] = tested on: A549 human adenocarcinoma tumor cells; assay: Microtubule bundling patterns in tumor cells by immunofluorescence; format: cell-based; parameters: key to Microtubule bundling in A549 cells: −: no effect; +/−: minimal or questionable effect; +: weak effect; ++: strong effect; +++: very strong effect equivalent to discodermolide; details: for Microtubule bundling in A549 cells: subjective rating versus discodermolide
Experimental: Discodermolide and discodermolide analogs were evaluated as to their effects on the morphology of the microtubule network of cells using mouse anti-alpha-tubulin monoclonal antibody.
On day one, 7×10^4 adherent A549 human adenocarcinoma tumor cells were cultured in TCM overnight at 37° C. in 5% CO2 on 22 mm^2 cover slips in 6-well microtiter plates. On day two, TCM was removed and replaced with 10-1000 nM discodermolide or analog in TCM or TCM without drug (control) and incubated overnight at 37° C. in 5% CO2. On day three, TCM was removed and cells attached to cover slips were fixed with a 3.7% formaldehyde solution in Dulbecco's PBS for 10 minutes at room temperature. Cells were permeabilized with a 2% Triton X-100 solution, 2 mL per well, for 5 minutes at room temperature and washed twice in Dulbecco's PBS prior to staining.
To each well containing cells attached to cover slips a 2 mL volume of mouse anti- alpha-tubulin monoclonal antibody (Cat# T-5168, Sigma Chemical Co., St. Louis, Mo.) diluted 1:1000 in Dulbecco's phosphate buffered saline (D-PBS) was added and the cells incubated at room temperature for 45 minutes. Cover slips were rinsed once with D-PBS. A 2 mL volume of goat-anti-mouse-IgG-FITC conjugated antibody (Cat# T-5262, Sigma Chemical Co., St. Louis, Mo.) diluted 1:1000 in D-PBS was added and the cells incubated at room temperature for 45 minutes. Cover slips were rinsed once in D-PBS and DNA was stained with 0.02 mg/mL propidium iodide together with 0.1 mg/mL of ribonuclease A (RNAse) A in D-PBS at 37° C. for 30 minutes. Cover slips were rinsed three times with sterile distilled water, air-dried and mounted on slides with SlowFade™ antifade solution (Molecular Probes, Eugene, Oreg.) and observed under the microscope using epifluorescence illumination for the presence of abnormal aster and microtubule bundle formations.

Compound | Cell cycle effects (100 nM) ([1]; 100 nM, 24 hr, A549) | Level of tubulin polymerization induced [2] | Stability of polymerized tubulin when held at 4° C. [2] | Maximum polymerization relative to that induced by discodermolide [2] | Purified tubulin polymerization at 10 μM [2] | Microtubule bundling observation ([3]; 100 nM) | Microtubule bundling observation ([3]; 1000 nM) | Microtubule bundling in A549 cells ([3]; Table 12) | Cell cycle effects ([1]; concentration not given) | Purified tubulin polymerization by 10 μM [2] | Cells with multiple aster formations, share of the population undergoing mitosis ([3]; 100 nM) | Discodermolide concentration giving equivalent morphological changes ([3]; analog at 1000 nM) | Microtubule bundling in A549 cells ([3]; Table 11) | Discodermolide concentration giving equivalent morphological changes ([3]; analog at 100 nM) | Cell population accumulated in the G2/M phase ([1]; 1000 nM, 24 hour incubation) | Cell cycle effects ([1]; concentrations lower than 1000 nM) | Microtubule bundling observation ([3]; 10 nM)
CCCCC(C)C(OC(N)=O)C(C)C(O)C(C)CC(C)=CC(C)C(O)C(C)CCC(O)CC1OC(=O)C(C)C(O)C1C (stereo not shown) [8,21,23-Hexahydrodiscodermolide (XII), 8,21,23-hexahydrodiscodermolide] | small percent increase in the cells accumulated at the G2/M phase; also recorded: high percentage of apoptosis | strong | relatively stable | approximately 80% | +++ | Microtubule bundling was evident | Microtubule bundling was evident | ++ | – | – | – | – | – | – | – | – | –
C=C/C=C\[C@H](C)[C@H](OC(N)=O)[C@@H](C)[C@H](O)[C@@H](C)C/C(C)=C\[C@H](C)[C@@H](O)[C@@H](C)/C=C\[C@@H](O)C[C@@H]1OC(=O)[C@@H](C)[C@@H](O)[C@H]1C [2-Epidiscodermolide (IV), 2-epidiscodermolide] | – | low levels | relatively stable | 30-50% | – | no microtubule matrix bundling | Some minor, peripheral, polymerization of microtubule matrix | – | Apoptosis and weak G2/M block | ++ | less than 10% | ~20 nM | + | – | – | – | –
C=CC=CC(C)C(OC(N)=O)C(C)C(O)C(C)CC(C)=CC(C)C(O)C(C)C=CC(O)CC1OC(=O)CC(O)C1C (stereo not shown) [2-Desmethyldiscodermolide (II), 2-desmethyldiscodermolide] | – | almost equivalent to those of the parent compound discodermolide | stable | – | – | Some thin or short peripheral microtubule bundling | extensive microtubule bundling | – | very strong apoptotic (sub-G1 peak) effects as well as an increase in the percentage of cells residing in the G2/M phase | ++ | – | 1000 nM | +++ | 20-50 nM | – | – | –
C=CC=CC(C)C(O)C(C)C(O)C(C)CC(C)=CC(C)C(O)C(C)C=CC(O)CC1OC(=O)C(C)C(O)C1C (stereo not shown) [19-Desaminocarbonyldiscodermolide (III), 19-desaminocarbonyldiscodermolide] | – | low levels | relatively stable | 30-50% | – | some microtubule bundling | moderate amount of microtubule bundling | – | Strong apoptosis; moderate G2/M block | + | – | 50-100 nM | ++ | 10-20 nM | – | – | –
CCCCC(C)C(OC(N)=O)C(C)C(O)C(C)CC(C)=CC(C)C(O)C(C)CCCCC1OC(=O)C(C)C(O)C1C (stereo not shown) [7-deoxy-8,21,23-hexahydrodiscodermolide] | – | low levels | relatively stable | 39% | ++ | small amount of microtubule bundling visible in some cells | strong microtubule bundling | ++ | – | – | – | 100 nM | – | ~10 nM | Approximately 50% | did not produce any cell cycle effects | no visible effect on the microtubule matrix
